Where a chain is given by its changes, count along the chain named.
Experiments:
Type in all cases: binding, zebrafish
Details in all cases: 10 μM nucleotide, after 15–30 min washing, P-O stretching bands 1250–800 cm−1
[1] = target: T1, zfP2X4 (ΔP2X4-C) WT (Danio rerio, UniProt F8W463, N187R/N78K); assay: ATR-FTIR difference spectroscopy, residual nucleotide after washing, zfP2X4 WT
T1 construct: EGFP (N); octa-histidine tag (N); made in house; host or cells: Sf9 insect cells
T1 sequence (F8W463 28-365 N78K/N187R limits assumed): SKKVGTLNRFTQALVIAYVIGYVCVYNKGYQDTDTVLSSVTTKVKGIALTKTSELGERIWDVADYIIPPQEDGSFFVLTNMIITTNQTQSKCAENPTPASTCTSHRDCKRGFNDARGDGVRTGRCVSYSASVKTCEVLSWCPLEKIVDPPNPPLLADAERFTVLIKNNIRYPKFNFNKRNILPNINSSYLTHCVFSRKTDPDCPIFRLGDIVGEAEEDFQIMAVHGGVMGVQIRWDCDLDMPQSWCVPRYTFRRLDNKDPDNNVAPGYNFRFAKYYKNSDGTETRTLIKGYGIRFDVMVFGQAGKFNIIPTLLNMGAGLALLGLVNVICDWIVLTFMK
Source text: (§1) To further investigate the nucleotide binding specificity of zfP2X4, we applied ligand-binding induced difference Attenuated total reflectance (ATR)-Fourier-transform infrared (FTIR) spectroscopy on the WT and conserved threonine mutants (T189S and T189V) of zfP2X4.
(§2) Figure 5 ATR-FTIR spectroscopic analysis of zfP2X4 for the ATP and CTP bindings. (A) The reduction of the ligand binding induced difference spectra in the ΔP2X4-C ^zfWT, ^zfT189S and ^zfT189V mutants around the P-O stretching region (1250–800 cm^−1) after washing treatment for 15–30 min. (B) The residual nucleotides after the washing treatment estimated from the ATR-FTIR analysis in (A).
(§3) The nucleotide binding affinity of zfP2X4 was analyzed by reduction of the band intensity after washing treatment (Fig. 5). The reduction of the P-O stretching bands between 1250–800 cm^−1 was monitored for ATP (Fig. 5A). […]
(§4) The perfusion-induced difference FTIR spectroscopy was performed as similarly to the previous studies. […] ATR-FTIR spectra of the samples were recorded at 25 °C and 2 cm^−1 resolution using a VERTEX 70 spectrometer (Bruker Optics) equipped with a liquid-nitrogen-cooled MCT detector. […] The obtained difference spectra were normalized based on the absolute absorbance of the amide I band at 1653 cm^−1, which well correlates with the quantities of the proteins on the ATR crystals. […]

[2] = target: T2, zfP2X4 (ΔP2X4-C) T189V mutant (Danio rerio, UniProt F8W463, N187R/N78K/T189V); assay: ATR-FTIR difference spectroscopy, residual nucleotide after washing, zfP2X4 T189V
T2 construct: EGFP (N); octa-histidine tag (N); made in house; host or cells: Sf9 insect cells
T2 sequence (F8W463 28-365 N78K/N187R/T189V limits assumed): T1 sequence (F8W463 28-365 N78K/N187R limits assumed) with T162V
Source text: as §1, §2, §3, §4

[3] = target: T3, zfP2X4 (ΔP2X4-C) T189S mutant (Danio rerio, UniProt F8W463, N187R/N78K/T189S); assay: ATR-FTIR difference spectroscopy, residual nucleotide after washing, zfP2X4 T189S
T3 construct: EGFP (N); octa-histidine tag (N); made in house; host or cells: Sf9 insect cells
T3 sequence (F8W463 28-365 N78K/N187R/T189S limits assumed): T1 sequence (F8W463 28-365 N78K/N187R limits assumed) with T162S
Source text: as §1, §2, §3, §4

Row | SMILES | residual nucleotide binding after washing [1] | residual nucleotide binding after washing [2] | residual nucleotide binding after washing [3]
1 | Nc1ccn([C@@H]2O[C@H](COP(=O)(O)OP(=O)(O)OP(=O)(O)O)[C@@H](O)[C@H]2O)c(=O)n1 [CTP] | ~ 50% | ~ 30% | ~ 30%
2 | Nc1ncnc2c1ncn2[C@@H]1O[C@H](COP(=O)(O)OP(=O)(O)OP(=O)(O)O)[C@@H](O)[C@H]1O [ATP, Adenosine 5-triphosphate] | ~ 80% | 10% | ~ 60%

From publication PMC5362899, “Structural insights into the nucleotide base specificity of P2X receptors” (Scientific Reports, 2017)
